Reference: patent US20240228487A1, “FUSED HETEROCYCLIC COMPOUND AND APPLICATION THEREOF, PHARMACEUTICAL COMPOSITIONS CONTAINING SAME AND APPLICATION THEREOF” (ZHEJIANG UNIVERSITY, priority 2021, published 2024)

Test system: WT (TRPM2+/+) and TRPM2 knockout (TRPM2-/-) mice, tMCAO
Experiment: tMCAO in WT and TRPM2 knockout mice given autophagy inhibitor
Type: in vivo, mouse
Details: FIG. 12
Description: After isoflurane inhalation gas anesthesia of 22-25 g male WT mice (TRPM2+/+) and TRPM2 knockout (TRPM2−/−) mice, the fiber-optic probes of laser Doppler flowmeter were fixed to the skull of the animals with glue and used to monitor the cerebral blood flow of the middle cerebral artery (MCA) supplying cortex.
The mice were fixed in the supine position, and the middle of the neck was dehaired and routinely sterilized with 75% alcohol. […] Only animals whose blood flow values decreased to 20% of the basic value were selected according to the blood flow data monitored by the flowmeter. […]
The mice were decapitated 24 h after ischemia-reperfusion, the coronal planes of the brains were cut into brain slices of about 2 mm thickness uniformly. […] The processed brain slices were photographed using a macro camera, and Image J image analysis software was used to calculate and count the cerebral infarct volume, and the measured results are shown in FIG. 11. […]

Cn1cnc(N)c2ncnc1-2 [Compound 3-MA]
cerebroprotective effect of reduced TRPM2 levels during cerebral ischemia reperfusion: reversed
